As usually defined, the Kd is a measure of binding affinity in units of concentration.

Experiment [1] concerns fully paired RNA (loop mutated to a base pair). The experiment in a line: Binding affinity by MST, Cy5-labeled fully paired RNA. As to the method: Binding affinity measurements: Binding affinities were measured by microscale thermophoresis (MST), performed on a Monolith NT.115 system (NanoTemper Technologies) with Cy5-labeled RNAs. These RNAs include: the 5′GAG/3′CCC SEQ ID NO: 16 loop at pri-miR-27a's Drosha site (Sequence:/5′-Cy5/rCrUrGrArGrGrUrGrArArArCrArUrCrCrCrArG SEQ ID NO: 17; Dharmacon), a related internal loop not selected by 9. 5′CAG/3′GCC SEQ ID NO: 17 loop (Sequence:/5′-Cy5/rCrUrCrArGrGrUrGrArArArCrArUrCrCrGrArG SEQ ID NO: 16; Dharmacon), and an RNA in which the loop is mutated to a base pair (Sequence:/5-Cy5/rCrUrGrArGrGrUrGrArArArCrArUrCrUrCrArG SEQ ID NO: 16; Dharmacon).
Briefly, Cy5-labeled RNA (10 nM) was prepared in 1× Binding Buffer and folded by heating at 60° C. for 5 min and then slowly cooling to room temperature. After cooling, Tween-20 was added to a final concentration of 0.1% (v/v). Compound solutions were prepared separately in 20 μL of 1× Binding Buffer at a final concentration of 5 μM (1% (v/v) DMSO), followed by 1:1 serial dilutions in 1× Binding Buffer. RNA and compound solutions were then mixed 1:1 by volume to a total of 20 μL.
Samples were incubated for 20 min at room temperature and then loaded into premium capillaries (NanoTemper Tech, Cat #MO-K025). The following parameters were used for MST measurements: 5-20% LED power (adjusted to keep fluorescence intensity between 2000 and 8000), 80% MST power, Laser-On time=30 s, Laser-Off time=25 s. The resulting data were analyzed by calculating the change in thermophoresis as a function of compound concentration and fitted by Equation 1, a one site binding model, in NanoTemper Tech's MST analysis software to yield the dissociation constant (Kd):
Where F is the concentration of fluorescently labeled RNA; unbound and bound refer to the thermophoresis signal at completely unbound and bound state of RNA, respectively; c is the concentration of the compound; f (c) is the thermophoresis signal at compound concentration of c; and Kd is the dissociation constant.

Another experiment addresses pri-miR-27a. In words: Competitive MST binding assay with unlabeled miR-27a precursor. Conditions: 100 nM compound, Cy5-labeled Drosha site model. Set-up: species or system human. The procedure: To measure the affinity of 9 for the 5′GAG/3′CCC loop in the context of pri-miR-27a, a competitive binding assay was used with a constant concentration of compound (100 nM) and the Cy5-labeled model of pri-miR-27a's Drosha site, and varying concentrations of unlabeled miR-27a precursor as reported by miRBase. (35) That is, the miR-27a precursor competes with the Cy5-labeled model of pri-miR-27a's Drosha site for binding 9. […] Thus, the compounds identified by using DEL-2DCS can bind avidly to biologically relevant RNA targets identified by Inforna.
For competitive binding assays, both WT and mutant pri-miR-27a RNAs were transcribed as previously described (see Table S6 for sequences). (11) The RNA was purified by gel electrophoresis and folded in 1× Binding Buffer at final concentration of 750 nM by heating at 60° C. for 5 min and then slowly cooling to room temperature. […] The resulting data were analyzed by SigmaPlot and fitted by Equation 2 to yield the competitive dissociation constant (Kd competitive).
where F is the concentration of fluorescence-labeled RNA; unbound and bound refers to the thermophoresis signal at completely unbound and bound state of RNA, respectively; c is the concentration of the compound; f (c) is the thermophoresis signal at compound concentration of c; Kd is the dissociation constant. […]

SMILES strings stand for the structures.

As to `C#CCN(CC(N)=O)C(=O)C[C@H](Cc1c[nH]c2ccccc12)NC(=O)[C@@H]1C[C@H](NC(=O)Cn2c(=O)[nH]c3ccccc3c2=O)CN1` [Compound 9], the saturable binding entry in experiment [1] is “Saturable binding was not observed”. At pri-miR-27a, this molecule yielded a Kd of 40 ± 30 nM.

The record behind these values is US20250051762A1, “PLATFORM USING DNA-ENCODED SMALL MOLECULE LIBRARIES AND RNA SELECTION TO DESIGN SMALL MOLECULES THAT TARGET RNA” (University of Florida Research Foundation, Incorporated, priority 2021, published 2025).
